Data on 22 molecules can be found in US20210188843A1, “QUINOLINE COMPOUNDS AND THEIR PREPARATION AND USE AS ANTIMALARIAL AGENTS” (The United States of America,as represented by the …, priority 2018, published 2021).

Data set [1] has as its system Asexual parasites of P. falciparum strain 3D7. The data set can be described thus: In vitro drug activity on asexual parasites (SYBR Green assay). Format: cell-based. The settings on record: Plasmodium falciparum, P. falciparum 3D7 asexual stage, 72 h, read-out: Asexual EC50. The protocol: Cell culture. Asexual parasites of P. falciparum strain 3D7 were cultured as described previously [Trager W, et al., Journal of Parasitology 2005, 91: 484-486]. Stage III-V gametocytes were selected and enriched with 3-day treatment with 50 mM N-acetylglucosamine (NAG) and the following Percoll density gradient centrifugation after gametocyte production [Tanaka T Q, et al., Molecular and Biochemical Parasitology, 2011, 177: 160-163]. Gametocytes of HB3 and Dd2 strains were produced and then set up for assay in a similar process. HepG2 cells (ATCC, cat. no. 77400) were cultured in 175-cm^2 tissue culture flasks with 30 ml growth medium at 37° C. in a 5% CO2 humidified atmosphere. Growth medium was made with Dulbecco's Modified Eagle Medium with 10% fetal bovine serum (FBS). Growth medium was replaced every other day and cells were passed at 75% confluence.
Asexual parasites of P. falciparum strain 3D7 were cultured as described previously (Trager, W. et al., J. Parasitol. 2005, 91(3): 484-486). Drug activity on asexual stage parasites was tested using a SYBR Green assay as described previously (Eastman, R. T. et al., Antimicrob. Agents Chemother. 2013, 57(1): 425-435; Smilkstein, M. et al., Antimicrob. Agents Chemother. 2004, 48(5): 1803-1806). Briefly, parasites were diluted to 0.5% parasitemia in complete culture medium with 2% hematocrit and drugs diluted in DMSO (<0.5%) and were loaded into a 96-well plate (200 μl/well). No drug and RBC alone wells were included as positive and background controls, respectively, and each testing condition was examined in duplicated. After 72 h incubation under the standard culture condition and a freeze-thaw lysis step at −80° C. and room temperature, 100 μl/well of lysis buffer containing SYBR Green I was added to the parasite culture and incubated for 30 min at room temperature. The fluorescence of each well was measured at 520 nm following excitation at 490 nm using a FLUOstar Optima™ microplate reader (BMG Labtech).
Compounds were screened against gametocytes and asexual parasites as described in Examples 1 and 2.

Data set [2] in a line: Microsomal stability (rat). Format: in vitro ADME. The following applies: rat microsomes.
A short description of the next data set: Solubility pH 7.4. Format: physicochemical. The settings on record: aqueous buffer.
[3] abbreviates: Table 1, read-out: Microsomal Stability (rat) T1/2.
The mark [4] stands for this setting: Table 3, read-out: Microsomal Stability (rat) T1/2.

Molecules are shown by their SMILES. Converted amounts (≈) assume the structure as drawn. Where two headings read alike, the source gives them in different places. Bounds are passed on as bounds.

Consider `CC(=O)c1cccc(-n2c(=N)n(C)c3cnc4ccc(-c5ccc(Cl)cc5)cc4c32)c1` [Compound 74, 1-(3-(8-(4-chlorophenyl)-2-imino-3-methyl-2,3-dihydro-1H-imidazo[4,5-c]quinolin-1-yl)phenyl)ethan-1-one], for which the EC50 in data set [1] (Table 1) came out at 445 nM. Moreover, the half-life in data set [2] (setting [3]) was greater than 30 min. Also, the solubility in “Solubility pH 7.4” (Table 1) is greater than 42 µg/mL.

For `Cn1c(=N)n(C2CC(N3CCNCC3)C2)c2c3cc(-c4ccc(Cl)cc4)ccc3ncc21` (stereo not drawn) [Compound 98, 8-(4-chlorophenyl)-3-methyl-1-(3-(piperazin-1-yl)cyclobutyl)-1,3-dihydro-2H-imidazo[4,5-c]quinolin-2-imine], the EC50 in data set [1] (Table 1) came out at 2550 nM. The half-life in data set [2] (setting [3]) is greater than 30 min. The same molecule had a solubility in “Solubility pH 7.4” (Table 1) greater than 44 µg/mL.

Regarding `Cc1ccc(C#N)cc1-n1c(=N)n(C)c2cnc3ccc(-c4ccccc4Cl)cc3c21` [Compound 62, 3-(8-(2-chlorophenyl)-2-imino-3-methyl-2,3-dihydro-1H-imidazo[4,5-c]quinolin-1-yl)-4-methylbenzonitrile], in data set [1] (Table 1), the EC50 stood at 704 nM. Besides, the half-life in data set [2] (setting [3]) came to 18.5 min. This molecule also registered a solubility in the data set “Solubility pH 7.4” (Table 1) of 7.8 µg/mL (≈ 18.4 µM).

With `Cc1cccc(-n2c(=N)n(C)c3cnc4ccc(-c5ccc(Cl)cc5)cc4c32)c1` [Compound 66, 8-(4-chlorophenyl)-3-methyl-1-(m-tolyl)-1,3-dihydro-2H-imidazo[4,5-c]quinolin-2-imine], in data set [1] (Table 1), the EC50 came out at 382 nM. Also, the half-life in data set [2] (setting [3]) was greater than 30 min. In the data set “Solubility pH 7.4” (Table 1), this molecule had a solubility of 4 µg/mL (≈ 10 µM).

On to `Cc1cc(NS(C)(=O)=O)c(C#N)cc1-n1c(=N)n(C)c2cnc3ccc(-c4ccc(Cl)cc4)cc3c21` [Compound 123, N-(4-(8-(4-chlorophenyl)-2-imino-3-methyl-2,3-dihydro-1H-imidazo[4,5-c]quinolin-1-yl)-2-cyano-5-methylphenyl)methanesulfonamide], for which the EC50 in data set [1] (Table 1) was 88.6 nM. For the same molecule, the half-life in data set [2] (setting [3]) was greater than 30 min. For the same molecule, in the data set “Solubility pH 7.4” (Table 1), the solubility is less than 1 µg/mL.

`Cc1ccc(C#N)cc1-n1c(=N)n(C)c2cnc3ccc(-c4ccc5c(c4)CC(=O)N5)cc3c21` [Compound 3, 3-(2-imino-3-methyl-8-(2-oxoindolin-5-yl)-2,3-dihydro-1H-imidazo[4,5-c]quinolin-1-yl)-4-methylbenzonitrile]: the EC50 in data set [1] (Table 1) was 20.3 nM. The half-life in data set [2] (setting [3]) was greater than 30 min. Besides, the solubility in the data set “Solubility pH 7.4” (Table 1) was 3.6 µg/mL (≈ 8.1 µM).

Regarding `Cc1cc(NCCN(C)C)c(C#N)cc1-n1c(=N)n(C)c2cnc3ccc(-c4ccc(Cl)cc4)cc3c21` [Compound 113, 5-(8-(4-chlorophenyl)-2-imino-3-methyl-2,3-dihydro-1H-imidazo[4,5-c]quinolin-1-yl)-2-((2-(dimethylamino)ethyl)amino)-4-methylbenzonitrile], the EC50 in data set [1] (Table 1) amounted to 546 nM. Moreover, the half-life in data set [2] (setting [3]) is greater than 30 min. In addition, the solubility in the data set “Solubility pH 7.4” (Table 1) is greater than 50 µg/mL.

As to `Cc1c(C#N)cccc1-n1c(=N)n(C)c2cnc3ccc(-c4ccc(Cl)cc4)cc3c21` [Compound 69, 3-(8-(4-chlorophenyl)-2-imino-3-methyl-2,3-dihydro-1H-imidazo[4,5-c]quinolin-1-yl)-2-methylbenzonitrile], in data set [1] (Table 1), the EC50 is 207 nM. Further, the half-life in data set [2] (setting [3]) is greater than 30 min. Further, the solubility in “Solubility pH 7.4” (Table 1) was less than 1 µg/mL.

With `Cc1ccccc1-c1ccc2ncc3c(c2c1)n(-c1cc(C#N)ccc1C)c(=N)n3C` [Compound 61, 3-(2-imino-3-methyl-8-(o-tolyl)-2,3-dihydro-1H-imidazo[4,5-c]quinolin-1-yl)-4-methylbenzonitrile], in data set [1] (Table 1), the EC50 was 1720 nM. In addition, in data set [2] (setting [3]), the half-life was 10 min. Further, in the data set “Solubility pH 7.4” (Table 1), the concentration in solution (solubility) came to 19.2 µg/mL (≈ 47.6 µM).

Turning to `COc1ccc(-n2c(=N)n(C)c3cnc4ccc(-c5ccc(Cl)cc5)cc4c32)cc1C#N` [Compound 84, 5-(8-(4-chlorophenyl)-2-imino-3-methyl-2,3-dihydro-1H-imidazo[4,5-c]quinolin-1-yl)-2-methoxybenzonitrile], the EC50 in data set [1] (Table 1) worked out at 658 nM. The half-life in data set [2] (setting [3]) was greater than 30 min. Further, the solubility in the data set “Solubility pH 7.4” (Table 1) was less than 1 µg/mL.

For `Cc1cc(N2CC(C)OC(C)C2)c(C#N)cc1-n1c(=N)n(C)c2cnc3ccc(-c4ccc(Cl)cc4)cc3c21` (stereo not drawn) [Compound 117, 5-(8-(4-chlorophenyl)-2-imino-3-methyl-2,3-dihydro-1H-imidazo[4,5-c]quinolin-1-yl)-2-(2,6-dimethylmorpholino)-4-methylbenzonitrile], in data set [1] (Table 1), the EC50 stood at 373 nM. Further, the half-life in data set [2] (setting [3]) was greater than 30 min. The molecule further showed a solubility in the data set “Solubility pH 7.4” (Table 1) of less than 1 µg/mL.

As for `Cc1ccc(C#N)cc1-n1c(=N)n(Cc2ccccc2)c2cnc3ccc(-c4ccc(Cl)cc4)cc3c21` [Compound 94, 3-(3-benzyl-8-(4-chlorophenyl)-2-imino-2,3-dihydro-1H-imidazo[4,5-c]quinolin-1-yl)-4-methylbenzonitrile], the EC50 in data set [1] (Table 1) is 9170 nM. For the same molecule, the half-life in data set [2] (setting [3]) is greater than 30 min. In “Solubility pH 7.4” (Table 1), this molecule gave a solubility of less than 1 µg/mL.

As to `COc1ccc(-c2ccc3ncc4c(c3c2)n(-c2cc(C#N)ccc2C)c(=N)n4C)cn1` [Compound 103, 3-(2-imino-8-(6-methoxypyridin-3-yl)-3-methyl-2,3-dihydro-1H-imidazo[4,5-c]quinolin-1-yl)-4-methylbenzonitrile], the EC50 in data set [1] (Table 1) amounted to 163 nM. In addition, the half-life in data set [2] (setting [3]) is greater than 30 min. For the same molecule, in the data set “Solubility pH 7.4” (Table 1), the solubility was greater than 42 µg/mL.

As for `Cc1cc(N2CCNC(C)C2)c(C#N)cc1-n1c(=N)n(C)c2cnc3ccc(-c4ccc(Cl)cc4)cc3c21` (stereo not drawn) [Compound 124, 5-(8-(4-chlorophenyl)-2-imino-3-methyl-2,3-dihydro-1H-imidazo[4,5-c]quinolin-1-yl)-4-methyl-2-(3-methylpiperazin-1-yl)benzonitrile], in data set [1] (Table 1), the EC50 came out at 217 nM. In addition, the half-life in data set [2] (setting [3]) is greater than 30 min. This molecule showed a solubility in “Solubility pH 7.4” (Table 1) of 1.9 µg/mL (≈ 3.64 µM).

With `Cc1cccc(C)c1-n1c(=N)n(C)c2cnc3ccc(-c4ccc(Cl)cc4)cc3c21` [Compound 99, 8-(4-chlorophenyl)-1-(2,6-dimethylphenyl)-3-methyl-1,3-dihydro-2H-imidazo[4,5-c]quinolin-2-imine], the EC50 in data set [1] (Table 1) is 3180 nM. The half-life in data set [2] (setting [3]) is greater than 30 min. Also, the solubility in the data set “Solubility pH 7.4” (Table 1) was greater than 41 µg/mL.

As for `CCC(=O)N1CCC(n2c(=N)n(C)c3cnc4ccc(-c5ccc(Cl)cc5)cc4c32)CC1` [Compound 104, 1-(4-(8-(4-chlorophenyl)-2-imino-3-methyl-2,3-dihydro-1H-imidazo[4,5-c]quinolin-1-yl)piperidin-1-yl)propan-1-one], the EC50 in data set [1] (Table 1) turned out to be 411 nM. In addition, the half-life in data set [2] (setting [3]) is greater than 30 min. In the data set “Solubility pH 7.4” (Table 1), this molecule returned a solubility greater than 44 µg/mL.

For `Cc1ncncc1-n1c(=N)n(C)c2cnc3ccc(-c4ccc(Cl)c(C(F)(F)F)c4)cc3c21`, the EC50 in data set [1] (Table 3) stood at 160 nM. For the same molecule, in data set [2] (setting [4]), the half-life is greater than 30 min. The molecule further returned a solubility in the data set “Solubility pH 7.4” (Table 3) of 10.6 µg/mL (≈ 22.6 µM).

As for `Cc1ncncc1-n1c(=N)n(C)c2cnc3ccc(-c4ccc(Cl)c(OC(F)(F)F)c4)cc3c21`, the EC50 in data set [1] (Table 3) turned out to be 158 nM. In addition, the half-life in data set [2] (setting [4]) was greater than 30 min. Moreover, the solubility in the data set “Solubility pH 7.4” (Table 3) worked out at 16 µg/mL (≈ 33 µM).

For the molecule `Cc1ccc(C#N)cc1-n1c(=N)n(CCO)c2cnc3ccc(-c4ccc(Cl)cc4)cc3c21` [Compound 95, 3-(8-(4-chlorophenyl)-3-(2-hydroxyethyl)-2-imino-2,3-dihydro-1H-imidazo[4,5-c]quinolin-1-yl)-4-methylbenzonitrile], the EC50 in data set [1] (Table 1) was found to be 2580 nM. Moreover, in data set [2] (setting [3]), the half-life was greater than 30 min. Besides, in “Solubility pH 7.4” (Table 1), the solubility came to 27.4 µg/mL (≈ 60.4 µM).

Consider `Cn1c(=N)n(-c2nccc(N)n2)c2c3cc(-c4ccc(Cl)cc4)ccc3ncc21`, for which the EC50 in data set [1] (Table 3) was determined as 1860 nM. Further, in data set [2] (setting [4]), the half-life is greater than 30 min. In addition, the solubility in “Solubility pH 7.4” (Table 3) was less than 1 µg/mL.

Consider `Cc1ncc(C#N)cc1-n1c(=N)n(C)c2cnc3ccc(-c4ccc(Cl)cc4)cc3c21` [Compound 22, 5-(8-(4-chlorophenyl)-2-imino-3-methyl-2,3-dihydro-1H-imidazo[4,5-c]quinolin-1-yl)-6-methylnicotinonitrile], for which the EC50 in data set [1] (Table 1) amounted to 62.3 nM. The half-life in data set [2] (setting [3]) was greater than 30 min. The same molecule had a solubility in “Solubility pH 7.4” (Table 1) of 3.5 µg/mL (≈ 8.24 µM).

`Cc1ccc([S+](=O)([O-])/N=c2\ccc3cnc4ccc(-c5ccc(Cl)cc5)cc4c3n2-c2ccc(C(=O)NC3CC3)cc2)cc1`: the EC50 in data set [1] (Table 2) amounted to 59 nM. For the same molecule, the half-life in data set [2] (Table 2, read-out: Microsomal Stability (rat) T1/2) was determined as 11.5 min. The same molecule displayed a solubility in the data set “Solubility pH 7.4” (Table 2) of less than 1 µg/mL.

Broadly, the EC50 is the midpoint of the concentration-response curve. The term solubility denotes how much of the substance goes into solution per volume. A high value points to a readily soluble substance.
